Earlier results as cited in patent US20060211660A1, “Combination therapy for topical application in the treatment of dry eye syndrome” (priority 2005, published 2006).
Where two headings read alike, the source gives them in different places.

Key:
[1] = for anabolic activity relative to standards: relative to standards (typically testosterone)
[2] = for androgenic (virilizing) activity relative to standards: relative to standards (typically testosterone)

SMILES	anabolic activity relative to standards [1]	androgenic (virilizing) activity relative to standards [2]	also measured
C[C@]12CC[C@@H]3c4ccc(O)cc4CC[C@H]3[C@@H]1CC[C@@H]2O [17-β-estradiol]	–	–	improvement in corneal lens transmittance and autofluorescence (0.00025% drops every 6 hours, women already taking 2 mg estriol valerate daily by mouth): varying or marginal improvement
CCC(=O)O[C@H]1CC[C@H]2[C@@H]3CCC4=CC(=O)CC[C@@H]4[C@H]3CC[C@]12C [19-nortestosterone propionate]	unchanged	decreased	–
C[C@]12CCC(=O)C[C@@H]1CC[C@@H]1[C@@H]2CC[C@]2(C)[C@@H](O)CC[C@@H]12 [dihydrotestosterone]	enhanced	unchanged	–
C[C@]12CC[C@@H]3c4ccc(O)cc4CC[C@H]3[C@@H]1C[C@@H](O)[C@@H]2O [estriol]	–	–	improvement in corneal lens transmittance and autofluorescence (post-menopausal patients, low systemic dose 0.25 mg per day): varying or marginal improvement
C[C@]1(O)CC[C@H]2[C@@H]3CCC4=CC(=O)CC[C@]4(C)[C@@]3(F)[C@@H](O)C[C@@]21C [fluoxymesterone]	–	augmented	–
C[C@]12COC(=O)C[C@@H]1CC[C@@H]1[C@@H]2CC[C@@]2(C)[C@H]1CC[C@]2(C)O [oxandrolone, 17 alpha-methyl-17β-hydroxy-2-oxa-5 alpha-androstan-3-one]	increased	decreased	anabolic activity, percent of that of methyltestosterone ([1]; relative to methyltestosterone): 322%; androgenic activity, percent of that of methyltestosterone ([2]; relative to methyltestosterone): 24%
C[C@]12C/C(=C/O)C(=O)C[C@@H]1CC[C@@H]1[C@@H]2CC[C@@]2(C)[C@H]1CC[C@]2(C)O [oxymetholone]	enhanced	unchanged	–
C[C@]12Cc3c[nH]nc3C[C@@H]1CC[C@@H]1[C@@H]2CC[C@@]2(C)[C@H]1CC[C@]2(C)O [stanozolol]	increased	decreased	–
